Measurements as given in patent US11981618B2, “P62 ligand compound, and composition for preventing, ameliorating or treating proteinopathies comprising the same” (AUTOTAC INC., priority 2018, dated 2024).
“Also recorded” adds a separate entry of the source.

Legend:
LC3 = test: Autophagy activity in cultured cells by immunoblotting using LC3 as a marker; assay type: cell-based, human; settings: HeLa; for autophagy activity (level of LC3), control compounds: different concentrations and different times, FIG. 5
Protocol: In order to evaluate the autophagy activity efficacy by the compounds (Examples 1-19), HeLa cell line, which is a cell line derived from a cervical cancer patient, was cultured using a DMEM medium containing 10% FBS and 1% streptomycin/penicillin in an incubator with 5% carbon dioxide. As representative compounds among the present compounds, YOK-1107, YOK-4404 and YOK-1104 were selected. In order to measure autophagy activity according to the treatment with these selected representative compounds, the respective cells were dispensed into 6 well plates. Additional cultures were performed […] so that the cells were completely attached to the surface of the plate. To find the concentration at which the respective compounds could increase the phenomenon of autophagy, the test compounds were diluted at 1, 2, 5, 10 and 20 μM and treated. After treatment with the respective compounds, the cells were cultured again in a cell incubator for 24 hours, and then the cells were collected. To extract proteins from the collected cells, 100 ul of lysis buffer (20 mM Tris (pH 7.4), 150 mM NaCl, 1% Triton X-100, 2 mM NaF, 2 mM EDTA, 2 mM beta-glycerophosphate, 5 mM sodium orthovanadate, 1 mM PMSF, leupeptin, aprotinin) was injected into each sample, and cells were lysed. Based on the measured total protein concentration, a sample buffer was added to each sample and allowed to react at 100° C. for 5 minutes. 5 ul was taken from the samples after the reaction, and dispensed into each well of acrylamide gel, and then immunoblotting was performed.
In order to investigate the autophagy activity efficacy by the compounds (Examples 1-19), immunoblotting was performed in the same manner as in Experimental Example 2 using LC3 as a marker. As for the difference, in order to evaluate the treatment time required for activation and the activity retention time, as the representative compounds selected among the present compounds, 5 μM of YOK-1107, YOK-1204, YOK-1304, YOK-2204, YOK-3304, […] treated for 1, 3, 6, 12, 24, 48 hours. On the other hand, as the representative compounds selected among the compounds of the present invention, […] YOK-1107, YOK-1109, YOK-2207, YOK-2209, YT-4-1, YT-4-2, YT-6-1, YT-6-2, YT-6-8, YT-6-7, YT-9-1, YT-9-2 were treated for 24 hours.
In order to investigate the autophagy activity efficacy of control compounds, immunoblotting was performed in the same manner as in Experimental Example 2 by using LC3 as a marker. As the control compounds, compounds having the following structure were used.

p62 protein = target: T1, p62 protein (Homo sapiens, UniProt Q13501); test: Oligomerization activity of p62 protein in cultured cells by immunoblotting; assay type: cell-based; settings: HEK293 cell lysate treated with test compounds at room temperature for 2 hours; immunoblot, FIG. 2
T1 construct: endogenous in cells; host or cells: HEK293 (cell lysate treated with compounds)
T1 sequence (Q13501 whole entry): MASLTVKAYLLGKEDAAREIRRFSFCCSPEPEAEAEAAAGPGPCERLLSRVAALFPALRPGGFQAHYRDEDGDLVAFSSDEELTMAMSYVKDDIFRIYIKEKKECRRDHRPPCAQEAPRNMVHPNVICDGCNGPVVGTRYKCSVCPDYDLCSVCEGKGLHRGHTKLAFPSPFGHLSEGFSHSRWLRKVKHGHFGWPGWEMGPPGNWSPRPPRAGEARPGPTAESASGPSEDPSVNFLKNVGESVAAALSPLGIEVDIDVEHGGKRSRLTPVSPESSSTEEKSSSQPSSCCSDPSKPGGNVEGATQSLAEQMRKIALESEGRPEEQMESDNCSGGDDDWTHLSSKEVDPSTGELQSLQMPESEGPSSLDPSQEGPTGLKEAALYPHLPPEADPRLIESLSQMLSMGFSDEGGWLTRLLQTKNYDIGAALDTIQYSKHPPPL
Source text: In order to evaluate the p62 protein oligomerization activity efficacy by the compounds (Examples 1-19), HEK293 cell line, which is human embryonic kidney-derived cell, was collected. As representative compounds among the present compounds, YOK-1104, YOK-2204, YOK-3304, YOK-1204, YOK-4404, YOK-1107, YOK-1109, YOK-2207, YOK-2209, YT-4-1, YT-4-2, YT-6-1, YT-6-2, YT-6-7, YT-6-8, YT-9-1, YT-9-2 were selected. In order to measure intracellular p62 protein activation and oligomerization according to the treatment with these selected representative compounds, the respective cells were dispensed into a pi dish. The cells were collected after further culturing for 24 hours so that the cells were completely attached to the surface of the plate. 100 ul of lysis buffer (20 mM Tris, pH 7.4), 150 mM NaCl, 1% Triton X-100, 2 mM NaF, 2 mM EDTA, 2 mM beta-glycerophosphate, 5 mM sodium orthovanadate, 1 mM PMSF, leupeptin, aprotinin) were injected into each sample and the cells were lysed. Based on the measured total protein concentration, each sample was treated with test compounds at room temperature for 2 hours, and then a sample buffer was added and allowed to react at 95° C. for 10 minutes. 25 ul was taken from the samples after the reaction, and dispensed into each well of acrylamide gel, and then immunoblotting was performed.

[1] = 1, 2, 5, 10 and 20 μM, 24 hours, FIG. 3
[2] = 5 μM, treated for 1, 3, 6, 12, 24, 48 hours, FIG. 4
[3] = treated for 24 hours (concentration not given), FIG. 4

## O=Cc1ccc(OCc2ccccc2)c(OCc2ccccc2)c1 [Example 1101, 3,4-bis(benzyloxy)benzaldehyde, reference compound]
LC3
  autophagy activity (level of LC3), control compounds: do not increase autophagy activity

## Oc1ccc(OCc2ccccc2)c(OCc2ccccc2)c1 [Example 1102, 3,4-bis(benzyloxy)phenol, reference compound]
LC3
  autophagy activity (level of LC3), control compounds: do not increase autophagy activity

## c1ccc(COc2ccc(OC[C@H]3CO3)cc2OCc2ccccc2)cc1 [Example 1103, (R)-2-((3,4-bis(benzyloxy)phenoxy)methyl)oxirane, reference compound]
LC3
  autophagy activity (level of LC3), control compounds: do not increase autophagy activity

## O=Cc1ccc(OCc2ccccc2)c(OCCc2ccccc2)c1 [Example 1201, 4-(benzyloxy)-3-phenethoxybenzaldehyde, reference compound]
LC3
  autophagy activity (level of LC3), control compounds: do not increase autophagy activity

## Oc1ccc(OCc2ccccc2)c(OCCc2ccccc2)c1 [Example 1202, 4-(benzyloxy)-3-phenethoxyphenol, reference compound]
LC3
  autophagy activity (level of LC3), control compounds: do not increase autophagy activity

## c1ccc(CCOc2cc(OC[C@H]3CO3)ccc2OCc2ccccc2)cc1 [Example 1203, (R)-2-((4-(benzyloxy)-3-phenethoxyphenoxy)methyl)oxirane, reference compound]
LC3
  autophagy activity (level of LC3), control compounds: do not increase autophagy activity

## O=Cc1ccc(OCc2ccccc2)c(OCCCc2ccccc2)c1 [Example 1301, 4-(benzyloxy)-3-(3-phenylpropoxy)benzaldehyde, reference compound]
LC3
  autophagy activity (level of LC3), control compounds: do not increase autophagy activity

## Oc1ccc(OCc2ccccc2)c(OCCCc2ccccc2)c1 [Example 1302, 4-(benzyloxy)-3-(3-phenylpropoxy)phenol, reference compound]
LC3
  autophagy activity (level of LC3), control compounds: do not increase autophagy activity

## O=Cc1ccc(OCc2ccccc2)c(OCCCCc2ccccc2)c1 [Example 1401, 4-(benzyloxy)-3-(4-phenylbutoxy)benzaldehyde, reference compound]
LC3
  autophagy activity (level of LC3), control compounds: do not increase autophagy activity

## Oc1ccc(OCc2ccccc2)c(OCCCCc2ccccc2)c1 [Example 1402, 4-(benzyloxy)-3-(4-phenylbutoxy)phenol, reference compound]
LC3
  autophagy activity (level of LC3), control compounds: do not increase autophagy activity

## O=Cc1ccc(OCCc2ccccc2)c(OCCc2ccccc2)c1 [Example 2201, 3,4-diphenethoxybenzaldehyde, reference compound]
LC3
  autophagy activity (level of LC3), control compounds: do not increase autophagy activity

## Oc1ccc(OCCc2ccccc2)c(OCCc2ccccc2)c1 [Example 2202, 3,4-diphenethoxyphenol, reference compound]
LC3
  autophagy activity (level of LC3), control compounds: do not increase autophagy activity

## O=Cc1ccc(OCCCc2ccccc2)c(OCCCc2ccccc2)c1 [Example 3301, 3,4-bis(3-phenylpropoxy)benzaldehyde]
LC3; [1]
  autophagy activity (level of LC3): increasing the autophagy activity

## Oc1ccc(OCCCCc2ccccc2)c(OCCCCc2ccccc2)c1 [Example 4402, 3,4-bis(4-phenylbutoxy)phenol, reference compound]
LC3
  autophagy activity (level of LC3), control compounds: do not increase autophagy activity

## CC(C)NC[C@@H](O)COc1ccc(OCc2ccccc2)c(OCc2ccccc2)c1 [YOK-1104, (R)-1-(3,4-bis(benzyloxy)phenoxy)-3-(isopropylamino)propan-2-ol]
p62 protein
  p62 protein oligomerization activity (p62 monomer, oligomers and high-molecular aggregates): increasing the p62 protein oligomerization activity
LC3; [1]
  autophagy activity (level of LC3): increasing the autophagy activity

## N=C(N)NC[C@@H](O)COc1ccc(OCc2ccccc2)c(OCc2ccccc2)c1 [YOK-1107, (R)-1-(3-(3,4-bis(benzyloxy)phenoxy)-2-hydroxypropyl)guanidine]
p62 protein
  p62 protein oligomerization activity (p62 monomer, oligomers and high-molecular aggregates): increasing the p62 protein oligomerization activity
LC3; [2]
  autophagy activity (level of LC3): gradually increased; also recorded: increasing the autophagy activity
LC3; [1]
  autophagy activity (level of LC3): increasing the autophagy activity
LC3; [3]
  autophagy activity (level of LC3): gradually increased

## N=C(N)NCCNC[C@@H](O)COc1ccc(OCc2ccccc2)c(OCc2ccccc2)c1 [YOK-1109, (R)-1-(2-((3-(3,4-bis(benzyloxy)phenoxy)-2-hydroxypropyl)amino)ethyl)guanidine]
p62 protein
  p62 protein oligomerization activity (p62 monomer, oligomers and high-molecular aggregates): increasing the p62 protein oligomerization activity
LC3; [3]
  autophagy activity (level of LC3): gradually increased

## CC(C)NC[C@@H](O)COc1ccc(OCc2ccccc2)c(OCCCc2ccccc2)c1 [YOK-1304, (R)-1-(4-(benzyloxy)-3-(3-phenylpropoxy)phenoxy)-3-(isopropylamino)propan-2-ol]
LC3; [2]
  autophagy activity (level of LC3): gradually increased; also recorded: increasing the autophagy activity

## N=C(N)NC[C@@H](O)COc1ccc(OCCc2ccccc2)c(OCCc2ccccc2)c1 [YOK-2207, (R)-1-(3-(3,4-diphenethoxyphenoxy)-2-hydroxypropyl)guanidine]
p62 protein
  p62 protein oligomerization activity (p62 monomer, oligomers and high-molecular aggregates): increasing the p62 protein oligomerization activity
LC3; [3]
  autophagy activity (level of LC3): gradually increased

## N=C(N)NCCNC[C@@H](O)COc1ccc(OCCc2ccccc2)c(OCCc2ccccc2)c1 [YOK-2209, (R)-1-(2-((3-(3,4-diphenethoxyphenoxy)-2-hydroxypropyl)amino)ethyl)guanidine]
p62 protein
  p62 protein oligomerization activity (p62 monomer, oligomers and high-molecular aggregates): increasing the p62 protein oligomerization activity
LC3; [3]
  autophagy activity (level of LC3): gradually increased

## CC(C)NC[C@@H](O)COc1ccc(OCc2ccc(Cl)cc2)c(OCc2ccc(Cl)cc2)c1 [YT-4-1, (R)-1-(3,4-bis((4-chlorobenzyl)oxy)phenoxy)-3-(isopropylamino)propan-2-ol]
p62 protein
  p62 protein oligomerization activity (p62 monomer, oligomers and high-molecular aggregates): increasing the p62 protein oligomerization activity
LC3; [3]
  autophagy activity (level of LC3): gradually increased

## CC(C)NC[C@@H](O)COc1ccc(OCc2ccc(F)cc2)c(OCc2ccc(F)cc2)c1 [YT-4-2, (R)-1-(3,4-bis((4-fluorobenzyl)oxy)phenoxy)-3-(isopropylamino)propan-2-ol]
p62 protein
  p62 protein oligomerization activity (p62 monomer, oligomers and high-molecular aggregates): increasing the p62 protein oligomerization activity
LC3; [3]
  autophagy activity (level of LC3): gradually increased

## OCCNC[C@@H](O)COc1ccc(OCc2ccc(Cl)cc2)c(OCc2ccc(Cl)cc2)c1 [YT-6-1]
p62 protein
  p62 protein oligomerization activity (p62 monomer, oligomers and high-molecular aggregates): increasing the p62 protein oligomerization activity
LC3; [3]
  autophagy activity (level of LC3): gradually increased

## OCCNC[C@@H](O)COc1ccc(OCc2ccc(F)cc2)c(OCc2ccc(F)cc2)c1 [YT-6-2]
p62 protein
  p62 protein oligomerization activity (p62 monomer, oligomers and high-molecular aggregates): increasing the p62 protein oligomerization activity
LC3; [3]
  autophagy activity (level of LC3): gradually increased

## OCCNC[C@@H](O)COc1cccc(OCc2ccc(Cl)cc2)c1 [YT-6-7, (R)-1-(3-((4-chlorobenzyl)oxy)phenoxy)-3-((2-hydroxyethyl)amino)propan-2-ol]
p62 protein
  p62 protein oligomerization activity (p62 monomer, oligomers and high-molecular aggregates): increasing the p62 protein oligomerization activity
LC3; [3]
  autophagy activity (level of LC3): gradually increased
